Earlier results as cited in US20130129859A1, “DOSING PROTOCOLS FOR INCREASING PROTEIN SYNTHESIS IN AN ACTIVE INDIVIDUAL” (priority 2009, published 2013).

casein
Whole-body protein synthesis (previously discussed study): best with casein
Leucine balance, slow versus fast protein meal matched for leucine content (young, healthy subjects): higher leucine balance
